The text below walks through data of paper PMC12009420, “Dynamically chiral phosphonic acid-type metallo-β-lactamase inhibitors” (Communications Chemistry, 2025).

Holding throughout (format): biochemical
The target in assay [1] is T1, VIM-2 (Escherichia coli, UniProt Q5U7L7). The assay can be described thus: Enzymatic metallo-β-lactamase assay on purified VIM-2.
In a further assay the target is GIM-1 (Pseudomonas aeruginosa, UniProt Q704V1). The assay can be described thus: Enzymatic metallo-β-lactamase assay on purified GIM-1.
The target of assay [2] is T1, VIM-2. The assay can be described thus: Enzyme steady state kinetic studies (inhibitor 5g and VIM-2). The note with it: for Ki / Vmax: nitrocefin. As for the experimental part:
Enzyme steady state kinetic studies were performed to determine the mechanism of inhibition using inhibitor 5g and VIM-2 (Section 7, Supplementary Information). […] Assays were conducted in triplicates on a 96 well plate. Absorbance was measured at 482 nm using a SpectraMax 190 plate reader. Solutions of 300 μL consisting of buffer, purified enzyme (0.3 nM VIM-2), inhibitor 5g and reporter substrate nitrocefin with final 2.5% DMSO were incubated in triplicates on a 96 well plate for 5 min at 30 °C. Buffer solution consisted of 50 mM HEPES pH 7.2, 50 μM ZnSO4 and 0.4 mg/ml bovine serum albumin.
7. Enzyme kinetic studies
Enzyme steady state kinetic studies were performed to determine the mechanism of inhibition using inhibitor 5g and VIM-2. Km’, Ki and Vmax values were determined (Table S6).
For data analysis, SimFit software was used to fit the initial reaction velocities (v₀) to a Michaelis-Menten (1:1) model (Figure S40a). […]
Table S6. Kinetic parameters (Km’, Ki and vmax values) of inhibitor 5g against VIM-2 using nitrocefin as reporter substrate.
Figure S40. a, Michaelis-Menten fitting of the substrate concentration dependence of initial reaction velocities. b, Double reciprocal plot of the data in a, for VIM-2 in the absence and presence of inhibitor 5g at two concentrations (36 μM and 72 μM) using nitrocefin as substrate. [I] is the concentration of inhibitor 5g.

GIM-1, sequence (Q704V1 entry or part of it): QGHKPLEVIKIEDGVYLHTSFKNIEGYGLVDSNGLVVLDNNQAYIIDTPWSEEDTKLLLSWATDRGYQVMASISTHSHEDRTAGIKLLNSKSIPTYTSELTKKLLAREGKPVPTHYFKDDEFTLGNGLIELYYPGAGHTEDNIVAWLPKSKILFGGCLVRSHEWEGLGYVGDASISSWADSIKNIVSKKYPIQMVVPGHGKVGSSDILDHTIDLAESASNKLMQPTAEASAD

Regarding `O=C(NC(c1ccccc1O)P(=O)(O)O)c1scc2c1CCCC2` (centres unmarked) [5g], the Ki (in general, a measure of affinity in units of concentration, obtained from inhibition or displacement) is 43 ± 15 µM on VIM-2 [1] (approximated from Dixon plots (1/v vs [I]) at one constant substrate concentration, ± SE, read-out: Estimated inhibition constant Ki VIM-2); 36 ± 3.3 µM at VIM-2 [2] (Michaelis-Menten fit and Lineweaver-Burk plot, 30 °C); 31.3 µM at VIM-2 [2] ([I] 36 μM); 40.7 µM on VIM-2 [2] ([I] 72 μM). For the same compound, the “logIC50 VIM-2” value on VIM-2 [1] (log of IC50, ± SEM of logIC50) is listed as 1.06 ± 0.04 μM. Besides, the IC50 (commonly the concentration at which inhibition is half-maximal) amounted to 12 µM at VIM-2 [1] (purified enzyme 1 nM, nitrocefin 15 μM, pH 7.2, 25 °C) and 21 µM on GIM-1 (purified enzyme 1 nM, nitrocefin 2 μM, pH 7.2, 25 °C). For the same compound, the “logIC50 GIM-1” value at GIM-1 (log of IC50, ± SEM of logIC50) was 1.33 ± 0.11 μM. For the same compound, on VIM-2 [2] (Michaelis-Menten model and Lineweaver-Burk plot), the inhibition mode result is “competitive inhibition”. Besides, the Vmax was 50.0 ΔA/min on VIM-2 [2] ([I] 36 μM) and 47.0 ΔA/min at VIM-2 [2] ([I] 72 μM).
